Where a name gives a salt, the structure may show the parent alone. Read-outs that look alike come from different tables or passages of the source.
Tests used:
Human NPY5 receptor = molecular target: T1, Human NPY5 receptor (Homo sapiens, UniProt Q15761); assay: Human NPY5 receptor binding assay ([125I]PYY, membrane protein); details: [125I]PYY binding, read-out: hNPY5 IC50
T1 sequence (Q15761 1-445): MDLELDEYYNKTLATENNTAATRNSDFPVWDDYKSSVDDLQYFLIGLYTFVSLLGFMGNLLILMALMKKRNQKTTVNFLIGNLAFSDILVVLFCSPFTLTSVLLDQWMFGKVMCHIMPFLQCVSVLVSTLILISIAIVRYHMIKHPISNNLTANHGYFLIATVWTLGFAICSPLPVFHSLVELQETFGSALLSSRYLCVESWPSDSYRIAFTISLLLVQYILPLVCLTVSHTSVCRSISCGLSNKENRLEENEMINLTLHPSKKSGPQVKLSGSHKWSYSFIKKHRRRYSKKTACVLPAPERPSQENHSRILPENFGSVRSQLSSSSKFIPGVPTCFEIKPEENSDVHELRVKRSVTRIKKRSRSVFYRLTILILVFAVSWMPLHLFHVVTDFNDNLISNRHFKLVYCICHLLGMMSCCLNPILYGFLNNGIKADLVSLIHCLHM
Protocol: C. Human and Rat NPY5 Receptor Binding Assays
Binding assays are performed on GF/C Millipore 96well plates pretreated with 0.02% polyethylenimine. The binding buffer is 25 mM Tris, 120 mM NaCl, 5 mM KCl, 1.2 mM KH2PO4, 2.5 mM CaCl2, 1.2 mM MgSO4, 0.1% BSA and 0.5 mg/ml bacitracin, pH 7.4. Samples consist of membrane protein, 75-100 pM [125I]PYY (porcine, NEN-DuPont) and drug dilution. Nonspecific binding is defined by 1 μM PYY. After a 2 hour incubation at room temperature with constant mixing, the samples are aspirated on a vacuum manifold, and rinsed with ice-cold binding buffer. The amount of radioactivity in each well is quantitated with either gamma counting or liquid scintillation.

Y2 receptor = molecular target: T2, Y2 receptor (Homo sapiens, UniProt P49146); assay: Y2 receptor binding assay ([125I]PYY, membrane protein); details: membrane protein, read-out: hNPY2 IC50
T2 sequence (P49146 1-381): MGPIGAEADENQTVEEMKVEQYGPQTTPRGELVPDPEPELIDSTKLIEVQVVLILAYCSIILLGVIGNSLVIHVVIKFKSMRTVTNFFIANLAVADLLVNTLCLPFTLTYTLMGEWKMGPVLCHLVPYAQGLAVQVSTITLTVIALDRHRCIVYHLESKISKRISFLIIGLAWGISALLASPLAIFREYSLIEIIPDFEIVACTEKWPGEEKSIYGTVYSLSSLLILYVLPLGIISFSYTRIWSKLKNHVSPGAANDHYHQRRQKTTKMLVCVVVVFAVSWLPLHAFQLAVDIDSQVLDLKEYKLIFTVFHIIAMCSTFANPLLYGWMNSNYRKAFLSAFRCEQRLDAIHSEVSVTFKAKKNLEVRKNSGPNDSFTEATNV
Protocol: B. Human Y2 and Y4/PP1 Receptor Binding Assays
Binding assays were performed on GF/C Millipore 96-well plates pretreated with 0.02% polyethylenimine. The binding buffer for rat Y2 binding is Krebs-Ringer bicarbonate (pH 7.4) containing 0.01% BSA and 0.005% bacitracin. Samples consist of membrane protein, 25 pM [1251]PYY and drug dilution. Nonspecific binding is defined by 1 μM NPY. The binding buffer for human Y4/PP1 binding consists of 137 mM NaCl, 5.4 mM KCl, 0.44 mM KH2PO4, 1.26 mM CaCl2, 0.81 mM MgSO4, 20 mM HEPES, 1 mM dithiothreitol, 0.1% bacitracin, 100 mg/l streptomycin sulfate, 1 mg/l aprotinin, 10 mg/ml soybean trypsin inhibitor and 0.3% BSA, pH 7.4. Samples consist of membrane protein, 50 pM human [1251]human PP (hPP: NEN DuPont, Boston, Mass.) and drug dilution. 1 μM hPP is used to define nonspecific binding.
After a 2 hour incubation at room temperature with constant mixing, the samples are aspirated on a vacuum manifold, and rinsed with ice-cold binding buffer. The amount of radioactivity in each well is quantitated with either gamma counting or liquid scintillation.

`COc1ccccc1CNCC(=O)Nc1ccc(C(=O)c2ccccc2)cc1` [Compound 159, N-(4-Benzoyl-phenyl)-2-(2-methoxy-benzylamino)-acetamide] gave an IC50 (Human NPY5 receptor) of over 5 µM.
`CC(O)C1CCN(CC(=O)Nc2ccc(C3CCCCC3)cc2)CC1` (stereo not drawn) [Compound 59, N-(4-Cyclohexyl-phenyl)-2-[4-(1-hydroxy-ethyl)-piperidin-1-yl]-acetamide] gave an IC50 (Y2 receptor; [125I]PYY binding) of over 5 µM and an IC50 (Human NPY5 receptor) of 0.65 µM.
With `CC1(C)CC(C(N)=O)C(C)(C)N1CC(=O)Nc1ccc(C(=O)c2ccccc2)cc1` (stereo not drawn) [Compound 119, 1-[(4-Benzoyl-phenylcarbamoyl)-methyl]-2,2,5,5-tetramethyl-pyrrolidine-3-carboxylic acid amide] the IC50 (Y2 receptor; [125I]PYY binding) was over 5 µM and the IC50 (Human NPY5 receptor) was 3.6 µM.
`O=C(CN1CC[C@@H](O)C1)Nc1ccc(C2CCCCC2)cc1` [Compound 80, N-(4-Cyclohexyl-phenyl)-2-(3R-hydroxy-pyrrolidin-1-yl)-acetamide] was tested, and the IC50 (Y2 receptor; [125I]PYY binding) was over 5 µM and the IC50 (Human NPY5 receptor) was 1.4 µM.
`CCCC(=O)C1(c2ccccc2)CCN(CC(=O)Nc2ccc(C(=O)c3ccccc3)cc2)CC1` [Compound 74, N-(4-Benzoyl-phenyl)-2-(4-butyryl-4-phenyl-piperidin-1-yl)-acetamide] showed an IC50 (Y2 receptor; [125I]PYY binding) of over 5 µM and an IC50 (Human NPY5 receptor) of 0.4 µM.
Work on `O=C(CN1CCC[C@H]1CO)Nc1ccc(C(=O)c2ccccc2)cc1` [Compound 85, N-(4-Benzoyl-phenyl)-2-(2S-hydroxymethyl-pyrrolidin-1-yl)-acetamide] yielded an IC50 (Y2 receptor; [125I]PYY binding) of over 5 µM and an IC50 (Human NPY5 receptor) of 2.8 µM.
`O=C(CN1CCN(c2ccc(Cl)cc2)CC1)Nc1ccc(C2CCCCC2)cc1` [Compound 4, 2-[4-(4-Chloro-phenyl)-piperazin-1-yl]-N-(4-cyclohexyl-phenyl)-acetamide] gave an IC50 (Y2 receptor; [125I]PYY binding) of over 5 µM.
`O=C(CNCCc1c[nH]cn1)Nc1ccc(C2CCCCC2)cc1` [Compound 142, N-(4-Cyclohexyl-phenyl)-2-[2-(1H-imidazol-4-yl)-ethylamino]-acetamide] showed an IC50 (Human NPY5 receptor) of over 5 µM.
In the case of `NCCNCC1CCN(CC(=O)Nc2ccc(C(=O)c3ccccc3)cc2)CC1` [Compound 134, 2-{4-[(2-Amino-ethylamino)-methyl]-piperidin-1-yl}-N-(4-benzoyl-phenyl)-acetamide], the IC50 (Human NPY5 receptor) is reported as over 5 µM.
In the case of `CCCCCCCCCCNCC(=O)Nc1ccc(C2CCCCC2)cc1` [Compound 140, N-(4-Cyclohexyl-phenyl)-2-decylamino-acetamide], the IC50 (Human NPY5 receptor) is reported as over 5 µM.
Compound `O=C(CNCCc1c[nH]c2ccccc12)Nc1ccc(C(=O)c2ccccc2)cc1` [Compound 153, N-(4-Benzoyl-phenyl)-2-[2-(1H-indo-3-yl)-ethylamino]-acetamide] has an IC50 (Human NPY5 receptor) of over 5 µM.
`O=C(CNCc1ccc2c(c1)OCO2)Nc1ccc(C(=O)c2ccccc2)cc1` [Compound 158, 2-[(Benzo[1,3]dioxol-5-ylmethyl)-amino]-N-(4-benzoyl-phenyl)-acetamide] gave an IC50 (Human NPY5 receptor) of over 5 µM.
In the case of `O=C(CN1CCC(n2c(=O)[nH]c3ccccc32)CC1)NC(c1ccccc1)c1ccccc1` [Compound 322, N-Benzhydryl-2-[4-(2-oxo-2,3-dihydro-benzoimidazol-1-yl)-piperidin-1-yl]-acetamide; hydrochloride], the IC50 (Y2 receptor; [125I]PYY) is reported as over 5 µM.
In the case of `O=C(CNCCCc1ccccc1)Nc1ccc(C2CCCCC2)cc1` [Compound 141, N-(4-Cyclohexyl-phenyl)-2-(3-phenyl-propylamino)-acetamide], the IC50 (Human NPY5 receptor) is reported as over 5 µM.
For `O=C(CNC(c1ccccc1)c1ccccc1)Nc1ccc(C(=O)c2ccccc2)cc1` [Compound 138, 2-(Benzhydryl-amino)-N-(4-benzoyl-phenyl)-acetamide], the IC50 (Human NPY5 receptor) was over 5 µM.
In the case of `O=C(CNCCNc1ccc([N+](=O)[O-])cn1)Nc1ccc(C2CCCCC2)cc1` [Compound 147, N-(4-Cyclohexyl-phenyl)-2-[2-(5-nitro-pyridin-2-ylamino)-ethylamino]-acetamide], the IC50 (Human NPY5 receptor) is reported as over 5 µM.
For `O=C(CNCCNc1ccc([N+](=O)[O-])cn1)Nc1ccc(C(=O)c2ccccc2)cc1` [Compound 157, N-(4-Benzoyl-phenyl)-2-[2-(5-nitro-pyridin-2-ylamino)-ethylamino]-acetamide], the IC50 (Human NPY5 receptor) was over 5 µM.
`O=C(CNCCN1CCNCC1)Nc1ccc(C2CCCCC2)cc1` [Compound 146, N-(4-Cyclohexyl-phenyl)-2-(2-piperazin-1-yl-ethylamino)-acetamide] was tested, and the IC50 (Human NPY5 receptor) was over 5 µM.
With `COc1ccc(CCNCC(=O)Nc2ccc(C(=O)c3ccccc3)cc2)cc1` [Compound 155] the IC50 (Human NPY5 receptor) was over 5 µM.
Compound `CCCCCCCCCCNCC(=O)Nc1ccc(C(=O)c2ccccc2)cc1` [Compound 150, N-(4-Benzoyl-phenyl)-2-decylamino-acetamide] has an IC50 (Human NPY5 receptor) of over 5 µM.
`O=C(CNCCCc1ccccc1)Nc1ccc(C(=O)c2ccccc2)cc1` [Compound 151, N-(4-Benzoyl-phenyl)-2-(3-phenyl-propylamino)-acetamide] gave an IC50 (Human NPY5 receptor) of over 5 µM.
Work on `O=C(CNC(c1ccccc1)c1ccccc1)Nc1ccc(C2CCCCC2)cc1` [Compound 131, 2-(Benzhydryl-amino)-N-(4-cyclohexyl-phenyl)-acetamide] yielded an IC50 (Human NPY5 receptor) of over 5 µM.
In the case of `COc1ccccc1CNCC(=O)Nc1ccc(C2CCCCC2)cc1` [Compound 149, N-(4-Cyclohexyl-phenyl)-2-(2-methoxy-benzylamino)-acetamide], the IC50 (Human NPY5 receptor) is reported as over 5 µM.
For `COc1ccc(CCNCC(=O)Nc2ccc(C3CCCCC3)cc2)cc1` [Compound 145, N-(4-Cyclohexyl-phenyl)-2-[2-(4-methoxy-phenyl)-ethylamino]-acetamide], the IC50 (Human NPY5 receptor) was over 5 µM.
Compound `Cn1cccc1CCNCC(=O)Nc1ccc(C(=O)c2ccccc2)cc1` [Compound 139, N-(4-Benzoyl-phenyl)-2-[2-(1-methyl-1H-pyrrol-2-yl)-ethylamino]-acetamide] has an IC50 (Human NPY5 receptor) of over 5 µM.
`O=C(CNCCN1CCNCC1)Nc1ccc(C(=O)c2ccccc2)cc1` [Compound 156, N-(4-Benzoyl-phenyl)-2-(2-piperazin-1-yl-ethylamino)-acetamide] gave an IC50 (Human NPY5 receptor) of over 5 µM.
In the case of `O=C(CNCCc1c[nH]cn1)Nc1ccc(C(=O)c2ccccc2)cc1` [Compound 152, N-(4-Benzoyl-phenyl)-2-[2-(1H-imidazol-4-yl)-ethylamino]-acetamide], the IC50 (Human NPY5 receptor) is reported as over 5 µM.
`O=C(CN1CCCC1)Nc1ccc(C(=O)c2ccccc2)cc1` [Compound 136, N-(4-Benzoyl-phenyl)-2-pyrrolidin-1-yl-acetamide] gave an IC50 (Human NPY5 receptor) of over 5 µM.
`O=C(CNCCc1c[nH]c2ccccc12)Nc1ccc(C2CCCCC2)cc1` [Compound 143, N-(4-Cyclohexyl-phenyl)-2-[2-(1H-indol-3-yl)-ethylamino]-acetamide] showed an IC50 (Human NPY5 receptor) of over 5 µM.
With `COc1ccc2[nH]cc(CCNCC(=O)Nc3ccc(C4CCCCC4)cc3)c2c1` [Compound 144, N-(4-Cyclohexyl-phenyl)-2-[2-(5-methoxy-1H-indol-3-yl)-ethylamino]-acetamide] the IC50 (Human NPY5 receptor) was over 5 µM.
`O=C(CNc1nc[nH]n1)Nc1ccc(C(=O)c2ccccc2)cc1` [Compound 137, N-(4-Benzoyl-phenyl)-2-(1H-[1,2,4]triazol-3-ylamino)-acetamide] gave an IC50 (Human NPY5 receptor) of over 5 µM.
With `O=C(CN1CCCC1C(=O)O)Nc1ccc(C(=O)c2ccccc2)cc1` (stereo not drawn) [Compound 124, 1-[(4-Benzoyl-phenylcarbamoyl)-methyl]-pyrrolidine-2-carboxylic acid] the IC50 (Y2 receptor; [125I]PYY binding) was over 5 µM.
`O=C(CN1C[C@H](O)C[C@H]1C(=O)O)Nc1ccc(C2CCCCC2)cc1` [Compound 12, (4R,2S)-1-[(4-Cyclohexyl-phenylcarbamoyl)-methyl]-4-hydroxy-pyrrolidine-2-carboxylic acid] showed an IC50 (Human NPY5 receptor) of 8.9 µM.
Compound `CN(C)C1(C(N)=O)CCN(CC(=O)Nc2ccc(C3CCCCC3)cc2)CC1` [Compound 65, 1-[(4-Cyclohexyl-phenylcarbamoyl)-methyl]-4-dimethylamino-piperidine-4-carboxylic acid amide] has an IC50 (Human NPY5 receptor) of 0.69 µM.

Source: patent US6410792B1, “Amide derivatives and methods for using the same as selective neuropeptide Y receptor antagonists” (Bayer Corporation, priority 1997, dated 2002)
